A short description of data set [1]: mn = molality of the nth substance listed, in mol/kg. The conditions noted are these: 298.15 K, 101.3 kPa, Liquid, Vibrating tube method.
Data set [2] in a line: wn = mass fraction of the nth substance listed. The conditions noted are these: 298.15 K, 101.3 kPa, Liquid, Vibrating tube method.

± gives the expanded uncertainty stated by the source.

Take `OCC1CO1` (stereo not drawn) [2,3-epoxy-1-propanol] + O: in data set [1] (m1 = 0.4019), the mass density is 1001.85 ± 0.44 kg/m3.
For the compound `OC[C@@H]1CO1` [R-(+)-glycidol] + O, the mass density in data set [1] (m1 = 0.402) is 1002.68 ± 0.27 kg/m3.
Regarding `OC[C@H]1CO1` [S-(-)-glycidol] + O, the mass density in data set [1] (m1 = 0.4554) is on record as 1002.79 ± 0.27 kg/m3.
For the compound `CN(C)C=O` [dimethylformamide] + O, the mass density is on record as 996.463 ± 0.11 kg/m3 in data set [2] (w1 = 0.05); 996.232 ± 0.11 kg/m3 in data set [2] (w1 = 0.1001); 996.24 ± 0.11 kg/m3 in data set [2] (w1 = 0.15); 996.402 ± 0.11 kg/m3 in data set [2] (w1 = 0.2001); 996.649 ± 0.11 kg/m3 in data set [2] (w1 = 0.2502).
